Type in all cases: cell-based, human
Assay [1] deals with bioengineered heart muscle (BHM). Nature of the assay: Isometric contraction measurements of BHM (twitch tension/force of contraction) in organ baths. Conditions: for twitch tension/force of contraction: growth factor added during cardiac maturation (FGF2: 10 ng/mL, TGFb1: 1 ng/mL). How it is done:
Briefly, contraction experiments are performed in organ baths at 37° C. under constant bubbling with 5% CO2 and 95% O2 to maintain a physiological pH in Tyrode's solution containing (all in mM): 120 NaCl, 1 MgCl2, 0.2 CaCl2, 5.4 KCl, 22.6 NaHCO3, 4.2 NaH2PO4, 5.6 glucose and 0.56 ascorbate. Calcium is adjusted using a 0.2 M calcium chloride solution. All BHM are analysed at 3 Hz with 5 ms square pulses of 200 mA electrical current in order to pace at approximately the embryonic heart rate. Stimulation frequency is altered to confirm proper force-frequency response (Bowditch mechanism). BHM are mechanically stretched at intervals of 125 μm until the maximum twitch force is observed (force-length response; Frank-Starling mechanism).
Briefly, all contraction experiments are performed in organ baths at 37° C. and physiological pH in Tyrode's solution containing (all in mM): 120 NaCl, 1 MgCl2, 0.2 CaCl2, 5.4 KCl, 22.6 NaHCO3, 4.2 NaH2PO4, 5.6 glucose and 0.56 ascorbate. Calcium is adjusted using a 0.2 M calcium chloride solution. All BHM are analysed at 3 Hz with 5 ms square pulses of 200 mA electrical current in order to pace at approximately the embryonic heart rate. Stimulation frequency is altered to confirm proper force-frequency response (Bowditch mechanism). BHM are mechanically stretched at intervals of 125 μm until the maximum twitch force is observed at 2 mM calcium (Frank-Starling mechanism). Subsequently, BHM are subjected to different calcium concentrations (0.2, 0.4, 0.8, 1.2, 1.6, 2.0, 2.4 mM) and the twitch force is recorded. For isoprenaline experiments the calcium concentration is adjusted to 0.6 mM and subsequently the isoprenaline concentration is adjusted to 1 μM.
(§1) BHM formation was optimized on the HES2 line. HES2 hPSCs were suspended 1:1 in PSC-medium minus FGF-2 and HFF-conditioned medium (HFF-CM—harvested from 5 day confluent irradiated HFF cultures) with 10 ng/mL FGF2 and mixed with a collagen I hydrogel. For the HES3, and hIPS lines 10 μM Y-27632 was also added to the medium. The collagen I matrix was formulated with acid-soluabilized bovine collagen I (Devro) with an equi-volume of 2×DMEM (Gibco) and neutralized using 0.1 M sodium hydroxide. The hPSC/collagen I matrix was formulated to give a final collagen I concentration of 1 mg/ml and 5×10^5 hPSC per 170 μl. For the HES3 and hIPS lines 1×10^6 and 0.5×10^6 cells were used respectively per 170 μl. For each BHM, 170 μl of the hPSC/collagen I matrix was pipette into circular molds (i.d.=4 mm, o.d.=10 mm) fabricated using poly(dimethylsiloxane) (Sylgard, Dow Corning). After 10 min of culture in the incubator at 37° C. the collagen gelled and 1.25 ml of 1:1 human foreskin fibroblast-conditioned medium with 10 ng/ml FGF2 was added per BHM. The following day the BHMs were rinsed with RPMI medium and then differentiated as indicated in each figure, with 1.25 ml of medium per BHM. At day 13 the BHM were transferred onto mechanical stimulators as indicated. The protocol details for each figure are outlined in FIG. 8.
Contraction experiments were performed in organ baths at 37° C. and continuous bubbling with 5% CO2/95% O2 to maintain a physiological pH in Tyrode's solution containing (all in mM): 120 NaCl, 1 MgCl2, 0.2 CaCl2, 5.4 KCl, 22.6 NaHCO3, 4.2 NaH2PO4, 5.6 glucose and 0.56 ascorbate. Calcium was adjusted using a 0.2 M calcium chloride solution. All BHM were first analysed at 3 Hz with 5 ms square pulses of 200 mA in order to pace at approximately the embryonic heart rate. BHM were mechanically stretched at intervals of 125 μm until Lmax, i.e. the tissue length were maximum twitch tension/force of contraction was recorded in the presence of maximally inotropically active calcium concentrations (2 mmol/L; Frank-Starling mechanism). Subsequently, BHM were subjected to different calcium concentrations (0.2, 0.4, 0.8, 1.2, 1.6, 2.0, 2.4 mM) and the twitch force recorded. […]

A further assay deals with HES2 hPSCs. Nature of the assay: 2D cardiac differentiation of hPSC (MESP1 qPCR day 3, α-actinin flow cytometry day 16, beating activity). From the text:
For this reason a cardiac differentiation protocol was firstly required which consistently produced cardiomyocytes and fibroblasts/stromal cells. The inventors optimized their cardiac differentiation protocol (FIG. 1a) for both yield and consistency, based on a previously published serum-free 2D hPSC differentiation protocol (Hudson et al. Stem Cells Dev 21, 1513-1523 (2012)). It was reasoned that robustness and efficiency could be enhanced if WNT activity was stabilized during the mesoderm induction phase. As surrogate marker for mesoderm induction MESP1 expression was analysed by qPCR on culture day 3; this was followed by flow cytometry for α-actinin (cardiomyocyte marker) at day 16, which were found correlated very well with the amount of beating activity.
Cardiac differentiation was optimized on the HES2 line. HES2 hPSCs were plated at 5×10^4 cells/cm^2 (1×10^5 cells/cm^2 for HES3 and hIPS lines) on 1:30 Matrigel/PBS coated-plates and cultured in 1:1 PSC-medium minus FGF-2 and HFF-conditioned medium (HFF-CM—harvested from 5 day confluent irradiated HFF cultures) with 10 ng/mL FGF2. For the hIPS line 10 μM Y-27632 was added to this medium. After 1 day the cells were rinsed with RPMI medium, then differentiated as indicated in each figure with 0.5 ml of medium in each well of a 24 well plate. The protocol details for each figure are outlined in FIG. 8.
(§2) Cells, BHMs or human heart biopsies were harvested and stored at −80° C. until RNA extraction using Trizol following manufacturer's instructions (Applied Biosystems). 1 μg of RNA was then treated with DNAse (Roche) followed by cDNA synthesis using a High Capacity cDNA Reverse Transcription Kit (Applied Biosystems). qPCR was performed using Fast SYBR Green Master Mix (Applied Biosystems) on a 384-well format AB7900 HT (Applied Biosystems). Gene expression was normalized using 2^−ΔCt or 2^−ΔΔCt using GAPDH as the housekeeping gene which we found to be consistently expressed between conditions in all of our experiments. Primer details are given in below Table 1.
(§3) Cells were stained either live or fixed using Histofix for 10 min at room temperature or ethanol. The cells were stained in 5% FBS in PBS (membrane blocking buffer) for cell surface markers (excluding TRA-1-60) and blocking buffer for internal markers. The cells were then stained with primary antibodies in blocking buffer for 45 min followed by secondary antibodies in blocking buffer and Hoechst for 30 min at 4° C. (Table 2). A BD LSRII was used for flow cytometry analysis (BD Biosystems). Live cells populations were gated based on forward-side scatter profiles; fixed cells populations were gated based on Hoechst staining. BD FACSDiva Software (BD Bioscience) or Cyflologic v1.2.1 (Cyflo Ltd) were used for analysis.
(In qPCR the cycle at which signal appears reflects the starting amount.)

The subject of assay [2] is bioengineered heart muscle (BHM). Nature of the assay: qPCR gene expression in BHM. Conditions: for pathological hypertrophy marker ANP expression / β-MHC/α-MHC expression ratio: growth factor added during cardiac maturation (FGF2: 10 ng/mL, TGFb1: 1 ng/mL). Here is the method:
as §1, §2

Assay [3] has the same test system. The assay can be described thus: Flow cytometry of disassociated BHM (cell composition, cardiomyocyte size, cell cycle, cell number). Conditions: for cardiomyocyte size: growth factor added during cardiac maturation (FGF2: 10 ng/mL, TGFb1: 1 ng/mL). How it is done: as §1
For the initial BHM digestion protocol, BHMs were disassociated in 0.025 mg/ml Liberase TM (Roche), 30 mM 2,3-butanedione monoxime at 37° C. for 60 min in PBS. To preserve cell surface markers, BHM was disassociated using the same protocol as for the 2D digestion.
as §3
(A flow cytometer gives signals particle by particle.)

[4] abbreviates: calcium adjusted to 1.2 mM during cardiac maturation.
Where [5] appears, read: ASC-2-P during the entire differentiation protocol, data not shown.

The values that follow come from patent US10329532B2, “Method to direct differentiation of pluripotent stem cells into functional heart muscle” (GEORG-AUGUST-UNIVERSITÄT GÖTTINGEN STIFTUNG ÖFFENTLICHEN …, priority 2013, dated 2019).

“Also recorded” adds a separate entry of the source. Read-outs that look alike come from different tables or passages of the source.

On to `c1cc(-c2cnn3cc(-c4ccc(OCCN5CCCCC5)cc4)cnc23)ccn1` [dorsomorphin, reference compound], for which the “twitch tension/force of contraction, % of the control group” value in assay [1] (2 μmol/L dorsomorphin with each medium exchange from day 6 onwards) was determined as 47%.
In the case of `Cc1c[nH]c(-c2cnc(NCCNc3ccc(C#N)cn3)nc2-c2ccc(Cl)cc2Cl)n1` [CHIR, CHIR99021, reference compound], the beating activity entry with HES2 hPSCs (CHIR alone or with the differentiation factors used in FIG. 1b,c) is “unable to induce any beating activity”.
With “FGF2: growth factor FGF2 (Miltenyi Biotec)”, the α-actinin entry in the assay on HES2 hPSCs (5 ng/ml FGF2 during the first 3 days of differentiation, flow cytometry day 16) is on record as “trend to increased α-actinin”. In the assay with HES2 hPSCs (5 ng/ml FGF2 during the first 3 days of differentiation, qPCR day 3), the MESP1 expression entry is listed as “trend to increased MESP1 expression”. Moreover, the “twitch tension/force of contraction” value in assay [1] was “trend to decreased twitch tension”. Also, in assay [2], the “pathological hypertrophy marker ANP expression” value is listed as “induced (variably) pathological hypertrophy marker ANP” and the β-MHC/α-MHC expression ratio entry is given as “did not change β-MHC/α-MHC expression ratio”. In assay [3], the cardiomyocyte size result is on record as “increase in cardiomyocyte size”.
Broadly, the EC50 is the concentration at which the effect is half-maximal. Take `[Ca+2]` [calcium]: the EC50 in assay [1] (29-30 day old BHM (increased culture time), read-out: calcium EC50 (twitch tension)) was 700 µM; in assay [1] (22 day old BHM (previous data), read-out: calcium EC50 (twitch tension)) it was 200 µM; in assay [1] (characteristic of the BHM obtained by the method, read-out: calcium EC50), above 200 µM. The elastic modulus result in assay [1] (setting [4]) is listed as “increase”. For the same molecule, the resting tension result in assay [1] (setting [4]) is on record as “increase in resting tension”. For the same molecule, the “twitch tension of the BHM” value in assay [1] (calcium adjusted to 1.2 mM during cardiac maturation (RPMI 0.42 mM)) was “greatly increased the twitch tension”. The “calcium handling proteins by qPCR (CASQ2, PLN, ATP2A2, RYR2)” value in assay [2] (calcium adjusted to 1.2 mM, data not shown) was “no changes in calcium handling proteins”.
Take TGFβ1: growth factor TGFβ1 (Peprotech): in assay [1], the “twitch tension/force of contraction” value was “trend to increased twitch tension”. Moreover, the “contractile function of BHM (FOC: force of contraction)” value in assay [1] (increasing TGFβ-1 during cardiac maturation phase, 0.3-10 ng/ml tested) is given as “enhances contractile function of BHM; also recorded: enhancement of contractile function of BHM in a concentration dependent manner”. Also, in assay [2], the “pathological hypertrophy marker ANP expression” value was “decreased” and the β-MHC/α-MHC expression ratio result was “more mature β-MHC/α-MHC expression ratio”. In addition, in assay [3], the cardiomyocyte size result is reported as “increase in cardiomyocyte size”.
Regarding “L-ascorbic acid 2 phosphate sesquimagnesium salt hydrate [ASC-2-P, reference compound]”, in the assay on HES2 hPSCs (setting [5]), the “cardiac differentiation efficiency in 2D protocol” value is “without changes in cardiac differentiation efficiency” and the “number of cells in 2D protocol” value was “significantly increasing the number of cells”. In addition, the “BHM twitch tension/force of contraction” value in assay [1] (ASC-2-P supplemented during early BHM culture, days 0-13) is given as “significantly improved”. Besides, in assay [3] (ASC-2-P supplemented days 0-13), the cardiomyocyte fraction entry is on record as “trend to increased cardiomyocyte fraction” and the stromal cell fraction entry is “no change in the stromal cell fraction”.
As for `CC(C)NCC(O)c1ccc(O)c(O)c1` (stereo not shown) [isoprenaline, reference compound], in assay [1] (1 μM isoprenaline, 29-30 day vs 22 day old BHM, paced at 0.6 mM calcium), the “inotropic response with extended culture” value is on record as “increased inotropic response”. Also, the inotropic response result in assay [1] (1 μM isoprenaline, paced conditions at 0.6 mM calcium) is listed as “more than 40 μN”.

B1: BMP4: growth factor BMP4 (R&D Systems) (protein, UniProt P12644 293-408, looked up)
Bone morphogenetic protein 4: SPKHHSQRARKKNKNCRRHSLYVDFSDVGWNDWIVAPPGYQAFYCHGDCPFPLADHLNSTNHAIVQTLVNSVNSSIPKACCVPTELSAISMLYLDEYDKVVLKNYQEMVVEGCGCR
As to B1, the “BMP4 concentration giving optimal and consistent induction of MESP1 and α-actinin expression” value in the assay on HES2 hPSCs (BMP4 concentration varied whilst CHIR is present) worked out at 5 ng/mL.
